The source made the active and inactive calls.
Legend:
[1] = target: T1, Carboxy-terminal domain RNA polymerase II polypeptide A small phosphatase 1 (Homo sapiens, UniProt Q9GZU7); assay: inhibitors of CTDSP1, concentration-response testing, biochemical assay, absorbance-based, actives from ultra-high-throughput screening (AID 540297); type: functional
T1 sequence (Q9GZU7 whole entry): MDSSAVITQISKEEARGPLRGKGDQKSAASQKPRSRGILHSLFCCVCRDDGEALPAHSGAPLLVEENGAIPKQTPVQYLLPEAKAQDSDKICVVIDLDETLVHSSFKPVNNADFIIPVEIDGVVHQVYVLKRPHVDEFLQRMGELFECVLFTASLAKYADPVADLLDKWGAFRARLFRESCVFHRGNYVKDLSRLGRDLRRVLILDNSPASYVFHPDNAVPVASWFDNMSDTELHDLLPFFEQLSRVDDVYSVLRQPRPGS

Caspase-6 = target: T2, Caspase-6 (Homo sapiens, UniProt P55212); assay: human caspase-6 inhibitors, dose response, biochemical, VEID-R110 fluorescence, cherry-pick (AID 720632)
T2 sequence (P55212 whole entry): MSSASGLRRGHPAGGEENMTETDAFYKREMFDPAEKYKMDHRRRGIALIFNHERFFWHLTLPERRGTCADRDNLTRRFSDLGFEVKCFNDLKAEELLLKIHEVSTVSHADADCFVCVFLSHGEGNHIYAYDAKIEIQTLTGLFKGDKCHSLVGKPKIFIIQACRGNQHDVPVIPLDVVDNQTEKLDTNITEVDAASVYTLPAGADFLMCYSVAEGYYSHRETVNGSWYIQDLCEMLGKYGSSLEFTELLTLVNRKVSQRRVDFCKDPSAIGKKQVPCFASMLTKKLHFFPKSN

[2] = target: Beta-adrenergic receptor kinase 1 (Homo sapiens, UniProt P25098); assay: aptamer displacement from bead-bound GRK2 – biochemical, cherry pick 1, bead flow cytometry, dose response (AID 504500)
Chain of Beta-adrenergic receptor kinase 1 (P25098 whole entry): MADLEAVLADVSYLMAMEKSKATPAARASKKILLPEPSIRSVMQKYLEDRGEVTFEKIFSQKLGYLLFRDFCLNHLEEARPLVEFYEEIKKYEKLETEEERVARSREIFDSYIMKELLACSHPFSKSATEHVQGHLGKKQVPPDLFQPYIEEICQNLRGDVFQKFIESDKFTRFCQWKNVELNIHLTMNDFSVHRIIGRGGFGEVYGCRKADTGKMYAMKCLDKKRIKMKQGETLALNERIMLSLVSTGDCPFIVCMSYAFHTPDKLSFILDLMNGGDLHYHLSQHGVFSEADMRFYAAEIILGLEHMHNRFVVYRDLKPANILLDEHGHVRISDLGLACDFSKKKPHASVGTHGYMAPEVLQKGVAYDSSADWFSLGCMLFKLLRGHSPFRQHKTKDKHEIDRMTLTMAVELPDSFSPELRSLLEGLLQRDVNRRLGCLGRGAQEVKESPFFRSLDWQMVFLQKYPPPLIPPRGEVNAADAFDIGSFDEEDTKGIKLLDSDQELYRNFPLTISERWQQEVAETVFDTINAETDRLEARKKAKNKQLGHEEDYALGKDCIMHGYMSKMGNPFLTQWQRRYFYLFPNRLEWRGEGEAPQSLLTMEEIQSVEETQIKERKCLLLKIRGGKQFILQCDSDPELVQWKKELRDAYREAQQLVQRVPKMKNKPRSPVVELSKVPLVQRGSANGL

Caspase-8 = Caspase-8 (Homo sapiens, UniProt Q14790); assay: caspase-8 inhibition counter-screen, dose response, selectivity assay for caspase-6 inhibitor project, biochemical, Z-IETD-R110 fluorescence, cherry-picked samples (AID 743294)
Chain of Caspase-8 (Q14790 217-374 limits assumed): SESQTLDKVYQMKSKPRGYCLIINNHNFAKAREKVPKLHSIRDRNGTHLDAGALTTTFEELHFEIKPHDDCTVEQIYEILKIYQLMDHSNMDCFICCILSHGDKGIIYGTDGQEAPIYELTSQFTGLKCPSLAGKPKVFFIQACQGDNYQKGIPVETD
Chain of Caspase-8 (Q14790 385-479 limits assumed): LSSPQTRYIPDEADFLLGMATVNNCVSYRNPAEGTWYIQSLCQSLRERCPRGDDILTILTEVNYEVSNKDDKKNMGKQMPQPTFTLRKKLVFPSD

Caspase-7 = Caspase-7 (Homo sapiens, UniProt P55210); assay: human caspase-7 inhibitors, dose response, selectivity assay for caspase-6 inhibitor project, biochemical, DEVD-R110 fluorescence, cherry-pick (AID 743295)
Chain of Caspase-7 (P55210 24-198 limits assumed): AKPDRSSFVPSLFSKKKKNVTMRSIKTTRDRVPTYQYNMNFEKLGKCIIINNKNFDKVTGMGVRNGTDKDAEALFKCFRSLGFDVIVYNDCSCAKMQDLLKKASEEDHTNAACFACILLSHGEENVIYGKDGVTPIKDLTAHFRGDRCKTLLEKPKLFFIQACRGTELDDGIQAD
Chain of Caspase-7 (P55210 207-303 limits assumed): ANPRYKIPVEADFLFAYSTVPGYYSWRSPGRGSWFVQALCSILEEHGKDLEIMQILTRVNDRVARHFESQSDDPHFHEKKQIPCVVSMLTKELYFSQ

HEK293 [3] = assay: optical interference in Abeta FP readout, dose response, artefact control for IDE activator project, biochemical, fluorescence polarization (AID 588442); type: functional, cell-based; settings: Homo sapiens
Insulin-degrading enzyme [4] = target: T3, Insulin-degrading enzyme (Homo sapiens, UniProt P14735); assay: activators of endogenous IDE in HEK cells, dose response, cell-based, fluorescence polarization (AID 588439); type: functional
T3 sequence (P14735 whole entry): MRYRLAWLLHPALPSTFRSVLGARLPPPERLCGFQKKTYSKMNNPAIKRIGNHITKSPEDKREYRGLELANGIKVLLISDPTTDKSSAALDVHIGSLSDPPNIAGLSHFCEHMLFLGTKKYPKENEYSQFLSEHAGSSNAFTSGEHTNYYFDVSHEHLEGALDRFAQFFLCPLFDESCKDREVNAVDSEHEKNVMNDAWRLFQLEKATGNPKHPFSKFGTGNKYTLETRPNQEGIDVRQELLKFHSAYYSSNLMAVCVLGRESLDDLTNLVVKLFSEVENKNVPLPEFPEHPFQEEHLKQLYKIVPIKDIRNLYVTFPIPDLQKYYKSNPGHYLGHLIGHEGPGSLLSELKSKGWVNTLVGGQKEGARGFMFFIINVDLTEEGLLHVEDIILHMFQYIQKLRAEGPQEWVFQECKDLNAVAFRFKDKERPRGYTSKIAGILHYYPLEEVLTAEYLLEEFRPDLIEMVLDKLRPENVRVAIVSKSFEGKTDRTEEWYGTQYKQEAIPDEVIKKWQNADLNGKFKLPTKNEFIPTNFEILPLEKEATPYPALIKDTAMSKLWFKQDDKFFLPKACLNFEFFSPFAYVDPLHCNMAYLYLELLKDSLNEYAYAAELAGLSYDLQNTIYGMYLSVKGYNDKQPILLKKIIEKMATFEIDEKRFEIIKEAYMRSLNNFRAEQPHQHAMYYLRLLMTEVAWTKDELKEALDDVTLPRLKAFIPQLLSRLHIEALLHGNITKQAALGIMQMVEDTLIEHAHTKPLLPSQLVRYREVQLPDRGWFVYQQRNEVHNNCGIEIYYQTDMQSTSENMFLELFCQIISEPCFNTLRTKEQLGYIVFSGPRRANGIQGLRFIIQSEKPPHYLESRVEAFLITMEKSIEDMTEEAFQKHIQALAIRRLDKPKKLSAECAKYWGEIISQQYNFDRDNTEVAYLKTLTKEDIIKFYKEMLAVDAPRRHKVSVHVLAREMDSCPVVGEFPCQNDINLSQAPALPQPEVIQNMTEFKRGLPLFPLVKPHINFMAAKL

HEK293 [5] = assay: HEK cell cytotoxicity by LDH release, dose response, cytotoxicity control for IDE activator project, fluorescence, HEK cells (AID 588440); type: functional, cell-based; settings: Homo sapiens;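 note: cytotoxicity by LDH release measuring loss of membrane integrity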
Insulin-degrading enzyme [6] = target: T3, Insulin-degrading enzyme; assay: activators of recombinant IDE enzyme, dose response, counter-screen for IDE activator project, biochemical, fluorescence polarization (AID 588681)

SMILES | IC50 [1] | AC50 (Caspase-6) | EC50 [2] | AC50 (Caspase-8) | AC50 (Caspase-7) | EC50 (HEK293 [3]) | EC50 (Insulin-degrading enzyme [4]) | IC50 (HEK293 [5]) | EC50 (Insulin-degrading enzyme [6])
CCCN(C(=O)c1cccc(-n2cccc2)c1)c1c(N)n(Cc2ccccc2)c(=O)[nH]c1=O | 6.44 µM (active) | 3.75 µM (active) | 0.72 µM (active) | 58.8 µM (active) | > 70 µM (inactive) |  |  |  | 
CCN(CC(=O)Nc1ccc(NC(C)=O)cc1)C(=O)c1cc(CN2C(=O)c3ccccc3C2=O)ccc1OC |  |  |  |  |  | > 54.7 µM (inactive) | > 54.7 µM (inactive) | > 89.2 µM (inactive) | > 54.7 µM (inactive)

— ChEMBL document CHEMBL1201862, “PubChem BioAssay data set” (2004)
